Reference: ChEMBL document CHEMBL5370549, “Optimization and evaluation of pyridinyl vinyl sulfones as Nrf2 activator for the antioxidant and anti-inflammatory effects” (Eur J Med Chem, 2023)
Active and inactive are the calls of the source.

Legend:
Mus musculus [1] = assay: (§1) Antiinflammatory activity against LPS-induced neuroinflammation C57BL/6N mouse model assessed as reduction of glial cell reactivity by measuring reduction in IBA1 expression in dentate gyrus at 20 mg/kg/day, po administered for 3 days followed by LPS administration for 7 days by immunofluorescence staining based analysis; assay type: functional, organism-based; settings: time 10.0 day
BV-2 [2] = assay: Antiinflammatory activity against LPS-induced mouse BV-2 cells assessed as inhibition of IL-1 beta protein expression at 0.001 to 1 uM pretreated for 6 hrs followed by LPS stimulation for 24 hrs by immunoblot analysis; assay type: functional, cell-based; settings: dose 0.001-1 µM, time 30.0 hrs
[3] = target: T1, Nuclear factor erythroid 2-related factor 2 (Mus musculus) (UniProt Q60795); assay: Activation of Nrf2 in mouse BV-2 cells assessed as increase in HO-1 protein expression at 3 uM measured after 24 hrs by immunoblot analysis; assay type: cell-based; settings: filed as activator
T1 sequence (whole entry): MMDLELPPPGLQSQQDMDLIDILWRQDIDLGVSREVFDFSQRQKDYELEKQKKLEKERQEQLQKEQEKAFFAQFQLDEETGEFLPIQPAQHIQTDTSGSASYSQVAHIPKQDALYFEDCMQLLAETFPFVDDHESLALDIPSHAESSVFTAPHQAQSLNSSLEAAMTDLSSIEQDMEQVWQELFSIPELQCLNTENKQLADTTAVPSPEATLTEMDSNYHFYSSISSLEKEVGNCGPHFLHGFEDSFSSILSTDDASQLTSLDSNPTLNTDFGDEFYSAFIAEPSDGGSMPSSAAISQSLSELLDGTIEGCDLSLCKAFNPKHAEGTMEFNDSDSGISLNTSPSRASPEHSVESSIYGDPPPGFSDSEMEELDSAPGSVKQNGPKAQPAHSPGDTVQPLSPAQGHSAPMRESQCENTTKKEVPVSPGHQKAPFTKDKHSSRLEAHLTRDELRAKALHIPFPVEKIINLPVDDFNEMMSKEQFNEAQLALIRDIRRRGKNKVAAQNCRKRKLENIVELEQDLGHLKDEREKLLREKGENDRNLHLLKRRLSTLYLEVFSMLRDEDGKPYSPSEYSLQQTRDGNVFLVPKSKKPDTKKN

BV-2 [4] = assay: Antiinflammatory activity against LPS-induced mouse BV-2 cells assessed as inhibition of NOS2 mRNA expression at 0.1 to 3 uM pretreated for 6 hrs followed by LPS stimulation for 6 hrs by qRT-PCR analysis; assay type: functional, cell-based; settings: dose 0.1-3 µM, time 12.0 hrs
[5] = target: T1, Nuclear factor erythroid 2-related factor 2 (Mus musculus); assay: Activation of Nrf2 in mouse BV-2 cells assessed as increase in GCLM protein expression at 3 uM measured after 12 hrs by immunoblot analysis; assay type: cell-based; settings: filed as activator
CYP2D6 = CYP2D6 (Homo sapiens, UniProt P10635); assay: Inhibition of CYP2D6 (unknown origin) assessed as enzyme activity at 10 uM relative to control; assay type: ADME; parameters: scale not given: the % may be the effect or the level left; settings: read-out: Activity
CYP2D6, sequence (P10635 whole entry): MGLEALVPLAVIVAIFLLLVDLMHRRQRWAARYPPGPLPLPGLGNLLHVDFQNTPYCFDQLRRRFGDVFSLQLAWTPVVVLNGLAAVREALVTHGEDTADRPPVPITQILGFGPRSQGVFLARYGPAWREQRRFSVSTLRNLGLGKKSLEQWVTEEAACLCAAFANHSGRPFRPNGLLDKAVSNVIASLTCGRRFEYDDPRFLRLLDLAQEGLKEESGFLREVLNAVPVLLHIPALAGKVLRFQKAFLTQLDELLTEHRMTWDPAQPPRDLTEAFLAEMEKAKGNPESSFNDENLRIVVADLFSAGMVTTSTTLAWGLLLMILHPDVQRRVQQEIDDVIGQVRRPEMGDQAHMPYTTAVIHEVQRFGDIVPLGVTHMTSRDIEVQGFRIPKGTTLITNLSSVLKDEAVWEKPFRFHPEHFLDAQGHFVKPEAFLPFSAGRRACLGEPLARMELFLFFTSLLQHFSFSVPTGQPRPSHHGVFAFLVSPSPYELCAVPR

Mus musculus [6] = assay: as §1, with “hippocampus CA3 region” for “dentate gyrus”; assay type: functional, organism-based; settings: time 10.0 day
[7] = target: T2, Nuclear factor erythroid 2-related factor 2 (Homo sapiens, UniProt Q16236); assay: Activation of Nrf2 in human U2OS cells co-expressing Keap1 assessed as induction of Nrf2 nuclear translocation incubated for 6 hrs by PathHunter chemiluminescence based analysis; assay type: cell-based
T2 sequence (Q16236 whole entry): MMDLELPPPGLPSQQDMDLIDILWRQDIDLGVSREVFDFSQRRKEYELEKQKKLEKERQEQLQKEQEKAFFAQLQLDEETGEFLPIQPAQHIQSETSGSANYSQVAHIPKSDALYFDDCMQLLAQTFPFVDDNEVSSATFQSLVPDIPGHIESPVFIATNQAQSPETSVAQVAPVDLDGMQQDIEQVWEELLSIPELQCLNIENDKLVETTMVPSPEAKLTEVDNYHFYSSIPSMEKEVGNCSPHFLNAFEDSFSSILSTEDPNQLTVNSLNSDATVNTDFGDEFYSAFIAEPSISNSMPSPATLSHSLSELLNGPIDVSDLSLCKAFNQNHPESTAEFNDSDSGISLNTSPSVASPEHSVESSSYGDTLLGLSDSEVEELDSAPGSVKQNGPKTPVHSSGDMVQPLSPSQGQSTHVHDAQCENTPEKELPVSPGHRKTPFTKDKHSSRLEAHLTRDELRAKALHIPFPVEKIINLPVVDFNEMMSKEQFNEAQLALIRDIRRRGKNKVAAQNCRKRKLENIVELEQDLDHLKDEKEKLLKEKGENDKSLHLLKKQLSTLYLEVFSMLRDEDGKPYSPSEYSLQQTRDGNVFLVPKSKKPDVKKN

Mus musculus [8] = assay: as §1, with “GFAP” for “IBA1”, “hippocampus CA3 region” for “dentate gyrus”; assay type: functional, organism-based; settings: time 10.0 day
BV-2 [9] = assay: Antiinflammatory activity against LPS-induced mouse BV-2 cells assessed as inhibition of TNF-alpha production at 0.1 to 3 uM pretreated for 6 hrs followed by LPS stimulation for 24 hrs by ELISA; assay type: functional, cell-based; settings: dose 0.1-3 µM, time 30.0 hrs
[10] = target: T1, Nuclear factor erythroid 2-related factor 2 (Mus musculus); assay: Activation of Nrf2 in mouse BV-2 cells assessed as increase in GCLM protein expression at 3 uM measured after 48 hrs by immunoblot analysis; assay type: cell-based; settings: filed as activator
Mus musculus [11] = assay: as §1, with “GFAP” for “IBA1”; assay type: functional, organism-based; settings: time 10.0 day
[12] = target: T1, Nuclear factor erythroid 2-related factor 2 (Mus musculus); assay: Activation of Nrf2 in mouse BV-2 cells assessed as increase in HO-1 protein expression at 3 uM measured after 9 hrs by immunoblot analysis; assay type: cell-based; settings: filed as activator
Mus musculus [13] = assay: Antiinflammatory activity against LPS-induced neuroinflammation C57BL/6N mouse model assessed as inhibition of IL-6 production in plasma at 20 mg/kg/day, po administered for 3 days followed by LPS administration for 7 days by ELISA; assay type: functional, organism-based; settings: time 10.0 day
Mus musculus [14] = assay: as §1, with “GFAP” for “IBA1”, “hippocampus CA1 region” for “dentate gyrus”; assay type: functional, organism-based; settings: time 10.0 day
[15] = Metabolic stability of the compound in human liver microsomes assessed as parent compound remaining measured after 30 mins; assay type: ADME, Microsome; settings: read-out: Stability
[16] = Metabolic stability of the compound in human plasma assessed as parent compound remaining measured after 30 mins; assay type: ADME, cell-free; settings: read-out: Stability
BV-2 [17] = assay: Antiinflammatory activity against LPS-induced mouse BV-2 cells assessed as inhibition of IL-6 production at 0.1 to 3 uM pretreated for 6 hrs followed by LPS stimulation for 24 hrs by ELISA; assay type: functional, cell-based; settings: dose 0.1-3 µM, time 30.0 hrs
Mus musculus [18] = assay: Cognitive enhancing activity against LPS-induced neuroinflammation C57BL/6N mouse model assessed as […] memory improvement by measuring delayed step-through latency at 20 mg/kg/day, po administered for 3 days followed by LPS administration for 7 days by passive avoidance test; assay type: functional, organism-based; settings: time 10.0 day
[19] = target: T1, Nuclear factor erythroid 2-related factor 2 (Mus musculus); assay: Activation of Nrf2 in mouse BV-2 cells assessed as increase in Nrf2 nuclear translocation measured after 3 hrs by immunoblot analysis; assay type: subcellular; settings: Nucleus, filed as activator, dose 0.01-3 µM

COc1cccnc1S(=O)(=O)/C=C/c1ncccc1Cl
active: Activity (Mus musculus [1]) | Activity (BV-2 [2]) | Activity [3] | Activity (BV-2 [4]) | Activity [5] | Activity (Mus musculus [6]) | Activity (Mus musculus [8]) | Activity (BV-2 [9]) | Activity [10] | Activity (Mus musculus [11]) | Activity [12] | Activity (Mus musculus [13]) | Activity (Mus musculus [14]) | Activity (BV-2 [17]) | Activity (Mus musculus [18]) | Activity [19] Dose-Dependent Effect
37 nM: EC50 [7]
94.1%: remaining at 0.5 h [15]
92.8%: remaining at 0.5 h [16]
> 99%: activity at 10 µM (CYP2D6)
